This assay addresses T1, ALK (Homo sapiens, UniProt Q9UM73).
T1 construct: purchased Millipore
Nature of the assay: ALK kinase assay (HTRF). Format: biochemical. Particulars: apparent Ki from IC50 by Cheng-Prusoff; ALK (Millipore) 3 nM or 4 nM, 50 μM ATP, 1 h at room temperature; read-out: HTRF_ALK Human - Ki. For orientation: TR-FRET usually uses a lanthanide donor and a delayed reading to cut background.

A value given as a limit tells only on which side of the number the result lay.

T1 sequence (Q9UM73 19-1620): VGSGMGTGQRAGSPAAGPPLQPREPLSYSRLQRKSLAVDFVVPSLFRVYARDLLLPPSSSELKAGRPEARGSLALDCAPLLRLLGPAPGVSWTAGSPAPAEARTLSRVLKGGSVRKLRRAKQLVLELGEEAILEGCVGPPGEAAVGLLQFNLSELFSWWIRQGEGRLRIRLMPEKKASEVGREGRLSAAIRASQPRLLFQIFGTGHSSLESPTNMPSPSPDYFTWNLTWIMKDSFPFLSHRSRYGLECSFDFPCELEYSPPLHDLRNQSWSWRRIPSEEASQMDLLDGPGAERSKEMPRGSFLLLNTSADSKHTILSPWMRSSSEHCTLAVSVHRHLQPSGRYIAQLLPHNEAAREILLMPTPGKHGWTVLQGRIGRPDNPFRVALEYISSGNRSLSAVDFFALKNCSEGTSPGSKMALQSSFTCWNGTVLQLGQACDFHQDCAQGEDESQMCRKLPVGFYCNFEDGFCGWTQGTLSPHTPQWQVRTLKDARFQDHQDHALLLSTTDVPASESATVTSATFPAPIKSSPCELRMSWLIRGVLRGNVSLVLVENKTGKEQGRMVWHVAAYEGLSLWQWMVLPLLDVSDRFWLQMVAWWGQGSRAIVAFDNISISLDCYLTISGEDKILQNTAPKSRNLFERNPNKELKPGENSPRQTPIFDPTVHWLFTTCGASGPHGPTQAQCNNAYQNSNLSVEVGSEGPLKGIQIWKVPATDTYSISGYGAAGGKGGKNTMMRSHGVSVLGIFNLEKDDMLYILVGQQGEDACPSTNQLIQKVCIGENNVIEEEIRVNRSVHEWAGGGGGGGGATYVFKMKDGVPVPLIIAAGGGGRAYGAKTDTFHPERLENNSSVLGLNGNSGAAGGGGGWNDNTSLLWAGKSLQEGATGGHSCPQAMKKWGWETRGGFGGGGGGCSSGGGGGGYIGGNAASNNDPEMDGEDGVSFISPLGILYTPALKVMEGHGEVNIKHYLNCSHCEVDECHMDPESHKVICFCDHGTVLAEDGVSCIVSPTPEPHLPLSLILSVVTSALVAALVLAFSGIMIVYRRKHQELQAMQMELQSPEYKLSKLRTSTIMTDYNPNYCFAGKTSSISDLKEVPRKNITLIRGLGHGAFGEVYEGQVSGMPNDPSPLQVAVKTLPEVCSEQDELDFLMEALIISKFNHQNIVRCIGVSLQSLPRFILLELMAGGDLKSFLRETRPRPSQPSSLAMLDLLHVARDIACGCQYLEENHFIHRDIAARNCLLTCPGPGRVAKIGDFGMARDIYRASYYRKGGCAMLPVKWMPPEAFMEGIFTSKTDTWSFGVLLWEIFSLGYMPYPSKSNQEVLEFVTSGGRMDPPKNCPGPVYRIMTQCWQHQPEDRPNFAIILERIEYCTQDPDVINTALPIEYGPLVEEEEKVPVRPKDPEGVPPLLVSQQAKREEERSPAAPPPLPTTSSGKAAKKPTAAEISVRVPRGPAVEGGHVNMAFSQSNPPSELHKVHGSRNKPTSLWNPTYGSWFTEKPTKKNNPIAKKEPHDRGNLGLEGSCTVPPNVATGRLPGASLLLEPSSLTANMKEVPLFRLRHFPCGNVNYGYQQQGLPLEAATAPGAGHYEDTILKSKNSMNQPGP

For `COc1cc2c(cc1Nc1cc(Cc3ccccc3Cl)nc3cnnc(O)c13)CNCC2` [Example 91, 2-(2-chlorobenzyl)-4-[(6-methoxy-1,2,3,4-tetrahydroisoquinolin-7-yl)amino]pyrido[2,3-d]pyridazin-5-ol], the Ki is 55 nM.
Then `COc1cc(N2CCNCC2)ccc1Nc1nc(Oc2ccccc2C#N)cc2cn[nH]c(=O)c12` [Example 115, 2-[(5-{[2-methoxy-4-(piperazin-1-yl)phenyl]amino}-4-oxo-3,4-dihydropyrido[3,4-d]pyridazin-7-yl)oxy]benzonitrile], with 6 nM; and `COc1cc(C2CCNCC2)ccc1Nc1cc(CCN2CCOCC2)nc2cn[nH]c(=O)c12` [Example 102, 4-{[2-methoxy-4-(piperidin-4-yl)phenyl]amino}-2-[2-(morpholin-4-yl)ethyl]pyrido[2,3-d]pyridazin-5(6H)-one], with 331 nM.
For the compound `COc1ccccc1Nc1nc(Nc2ccc(N3CCNCC3)cc2)cc2cnnc(O)c12` [Example 113, 5-[(2-methoxyphenyl)amino]-7-{[4-(piperazin-1-yl)phenyl]amino}pyrido[3,4-d]pyridazin-4-ol], the Ki came out at 58 nM.
For `COc1cc(N2CCN(C)CC2)ccc1Nc1nc(Cc2c(Cl)cccc2Cl)cc2cn[nH]c(=O)c12` [Example 30, 7-(2,6-dichlorobenzyl)-5-{[2-methoxy-4-(4-methylpiperazin-1-yl)phenyl]amino}pyrido[3,4-d]pyridazin-4(3H)-one], the Ki was determined as 3 nM.
The same measure for `COc1cc(N2CCNCC2)ccc1Nc1nc(Oc2ccccc2Cl)cc2c(C)nnc(O)c12` [Example 119, 7-(2-chlorophenoxy)-5-{[2-methoxy-4-(piperazin-1-yl)phenyl]amino}-1-methylpyrido[3,4-d]pyridazin-4-ol]: 15 nM; for `O=c1[nH]ncc2cc(Cc3c(Cl)cccc3Cl)nc(Nc3cc(F)c(N4CCNCC4)cc3F)c12` [Example 20, 7-(2,6-dichlorobenzyl)-5-{[2,5-difluoro-4-(piperazin-1-yl)phenyl]amino}pyrido[3,4-d]pyridazin-4(3H)-one]: 3 nM; for `COc1cc(N2CCNCC2)ccc1Nc1cc(Cc2c(Cl)cccc2Cl)nc2cn[nH]c(=O)c12` [Example 70, 2-(2,6-dichlorobenzyl)-4-{[2-methoxy-4-(piperazin-1-yl)phenyl]amino}pyrido[2,3-d]pyridazin-5(6H)-one]: 1 nM.
As to `O=c1[nH]ncc2cc(Oc3ccccc3Cl)nc(Nc3ccc(N4CCNCC4)cn3)c12` [Example 103, 7-(2-chlorophenoxy)-5-{[5-(piperazin-1-yl)pyridin-2-yl]amino}pyrido[3,4-d]pyridazin-4(3H)-one], the Ki came out at 20 nM.
Then `COc1cc(CCN2CCCC2)ccc1Nc1nc(Cc2c(Cl)cccc2Cl)cc2cn[nH]c(=O)c12` [Example 17, 7-(2,6-dichlorobenzyl)-5-({2-methoxy-4-[2-(pyrrolidin-1-yl)ethyl]phenyl}amino)pyrido[3,4-d]pyridazin-4(3H)-one], with 6 nM.
Then `COc1cc(N2CCN(C3CCCCC3)CC2)ccc1Nc1nc(Cc2c(Cl)cccc2Cl)cc2cn[nH]c(=O)c12` [Example 8, 5-{[4-(4-cyclohexylpiperazin-1-yl)-2-methoxyphenyl]amino}-7-(2,6-dichlorobenzyl)pyrido[3,4-d]pyridazin-4(3H)-one], with over 470 nM; and `COc1cc(N2CCNCC2)ccc1Nc1nc(Oc2cccc(Cl)c2Cl)cc2cn[nH]c(=O)c12` [Example 79, 7-(2,3-dichlorophenoxy)-5-{[2-methoxy-4-(piperazin-1-yl)phenyl]amino}pyrido[3,4-d]pyridazin-4(3H)-one], with 5 nM.
Turning to `O=c1[nH]ncc2cc(Cc3c(Cl)cccc3Cl)nc(Nc3c(F)cc(N4CCNCC4)cc3F)c12` [Example 42, 7-(2,6-dichlorobenzyl)-5-{[2,6-difluoro-4-(piperazin-1-yl)phenyl]amino}pyrido[3,4-d]pyridazin-4(3H)-one], the Ki turned out to be 25 nM.
As for `COc1cc(N2CCNCC2)ccc1Nc1nc(Nc2cc(Cl)ccc2F)cc2cn[nH]c(=O)c12` [Example 25, 7-[(5-chloro-2-fluorophenyl)amino]-5-{[2-methoxy-4-(piperazin-1-yl)phenyl]amino}pyrido[3,4-d]pyridazin-4(3H)-one], the Ki amounted to 6 nM.
Take `COc1cc(N2CCN(C(=O)CN(C)C)CC2)ccc1Nc1nc(Cc2c(Cl)cccc2Cl)cc2cnnc(O)c12` [Example 12, 1-[4-(4-{[7-(2,6-dichlorobenzyl)-4-hydroxypyrido[3,4-d]pyridazin-5-yl]amino}-3-methoxyphenyl)piperazin-1-yl]-2-(dimethylamino)ethanone]: the Ki worked out at 3 nM.
As to `COc1cc(C2CCNCC2)ccc1Nc1cc(Cc2cccc(F)c2F)nc2cn[nH]c(=O)c12` [Example 111, 2-(2,3-difluorobenzyl)-4-{[2-methoxy-4-(piperidin-4-yl)phenyl]amino}pyrido[2,3-d]pyridazin-5(6H)-one], the Ki stood at 15 nM.
As to `COc1cc(CC(=O)N2CCCC2)ccc1Nc1nc(Cc2c(Cl)cccc2Cl)cc2cn[nH]c(=O)c12` [Example 18, 7-(2,6-dichlorobenzyl)-5-({2-methoxy-4-[2-oxo-2-(pyrrolidin-1-yl)ethyl]phenyl}amino)pyrido[3,4-d]pyridazin-4(3H)-one], the Ki came out at 3100 nM.
As for `COc1cc(N2CCNCC2)ccc1Nc1nc(Cc2c(Cl)cccc2Cl)cc2cnnc(O)c12` [Example 2, 7-(2,6-dichlorobenzyl)-5-{[2-methoxy-4-(piperazin-1-yl)phenyl]amino}pyrido[3,4-d]pyridazin-4-ol], the Ki was 1.4 nM.
For the compound `COc1cc(N2CCNCC2)ccc1Nc1nc(Nc2ccc(F)c(F)c2F)cc2cn[nH]c(=O)c12` [Example 53, 5-{[2-methoxy-4-(piperazin-1-yl)phenyl]amino}-7-[(2,3,4-trifluorophenyl)amino]pyrido[3,4-d]pyridazin-4(3H)-one], the Ki stood at 4 nM.
On to `COc1cc(N2CCNCC2)ccc1Nc1nc(Cc2c(Cl)cccc2Cl)cc2c1C(=O)NCN2` [Example 1, 7-(2,6-dichlorobenzyl)-5-{[2-methoxy-4-(piperazin-1-yl)phenyl]amino}-2,3-dihydropyrido[4,3-d]pyrimidin-4(1H)-one], for which the Ki stood at 11 nM.
For `CCOc1cc(C2CCNCC2)ccc1Nc1nc(Oc2ccccc2Cl)cc2cn[nH]c(=O)c12` [Example 106, 7-(2-chlorophenoxy)-5-{[2-ethoxy-4-(piperidin-4-yl)phenyl]amino}pyrido[3,4-d]pyridazin-4(3H)-one], the Ki came out at 21 nM.
Then `COc1cc(C2CCNCC2)ccc1Nc1nc(NCC2CC2)cc2cnnc(O)c12` [Example 99, 7-[(cyclopropylmethyl)amino]-5-{[2-methoxy-4-(piperidin-4-yl)phenyl]amino}pyrido[3,4-d]pyridazin-4-ol], with 6 nM; and `COc1cc(C2CCNCC2)ccc1Nc1cc(Cc2cc(F)ccc2F)nc2cn[nH]c(=O)c12` [Example 110, 2-(2,5-difluorobenzyl)-4-{[2-methoxy-4-(piperidin-4-yl)phenyl]amino}pyrido[2,3-d]pyridazin-5(6H)-one], with 16 nM; and `COc1cc(N2CCNCC2)ccc1Nc1nc(Nc2c(F)cccc2F)cc2cn[nH]c(=O)c12` [Example 32, 7-[(2,6-difluorophenyl)amino]-5-{[2-methoxy-4-(piperazin-1-yl)phenyl]amino}pyrido[3,4-d]pyridazin-4(3H)-one], with 2 nM.
On to `COc1cc(N2CCNCC2)ccc1Nc1nc(Nc2ncccc2Cl)cc2cn[nH]c(=O)c12` [Example 50, 7-[(3-chloropyridin-2-yl)amino]-5-{[2-methoxy-4-(piperazin-1-yl)phenyl]amino}pyrido[3,4-d]pyridazin-4(3H)-one], for which the Ki was determined as 9 nM.
For `COc1cc(N2CCNCC2)ccc1Nc1nc(Nc2cccnc2)cc2cn[nH]c(=O)c12` [Example 44, 5-{[2-methoxy-4-(piperazin-1-yl)phenyl]amino}-7-(pyridin-3-ylamino)pyrido[3,4-d]pyridazin-4(3H)-one], the Ki was 13 nM.
For the compound `COc1cc(N2CCNCC2)ccc1Nc1nc(N[C@H]2CC[C@H](O)CC2)cc2cnnc(O)c12` [Example 86, 7-[(trans-4-hydroxycyclohexyl)amino]-5-{[2-methoxy-4-(piperazin-1-yl)phenyl]amino}pyrido[3,4-d]pyridazin-4-ol], the Ki turned out to be 2 nM.
For the compound `COc1cc(N2CCN3CCCC3C2)ccc1Nc1nc(Cc2c(Cl)cccc2Cl)cc2cn[nH]c(=O)c12` (stereo not drawn) [Example 66, 7-(2,6-dichlorobenzyl)-5-{[4-(hexahydropyrrolo[1,2-a]pyrazin-2(1H)-yl)-2-methoxyphenyl]amino}pyrido[3,4-d]pyridazin-4(3H)-one], the Ki was 10 nM.
Then `COc1cc(N2CCN(CCC(C)C)CC2)ccc1Nc1nc(Cc2c(Cl)cccc2Cl)cc2cn[nH]c(=O)c12` [Example 16, 7-(2,6-dichlorobenzyl)-5-({2-methoxy-4-[4-(3-methylbutyl)piperazin-1-yl]phenyl}amino)pyrido[3,4-d]pyridazin-4(3H)-one], with over 4700 nM; and `COc1cc(CN2CCNCC2)ccc1Nc1cc(Cc2ccccc2Cl)nc2cn[nH]c(=O)c12` [Example 92, 2-(2-chlorobenzyl)-4-{[2-methoxy-4-(piperazin-1-ylmethyl)phenyl]amino}pyrido[2,3-d]pyridazin-5(6H)-one], with 15 nM.
For `COc1cc(N2CCNCC2)ccc1Nc1nc(Nc2ccncc2Cl)cc2cn[nH]c(=O)c12` [Example 60, 7-[(3-chloropyridin-4-yl)amino]-5-{[2-methoxy-4-(piperazin-1-yl)phenyl]amino}pyrido[3,4-d]pyridazin-4(3H)-one], the Ki turned out to be 3 nM.
Take `O=c1[nH]ncc2cc(Cc3c(Cl)cccc3Cl)nc(Nc3ccc(N4CCNCC4)c(Cl)c3)c12` [Example 13, 5-{[3-chloro-4-(piperazin-1-yl)phenyl]amino}-7-(2,6-dichlorobenzyl)pyrido[3,4-d]pyridazin-4(3H)-one]: the Ki worked out at 1 nM.
For `COc1cc(N2CCNCC2)c(C)cc1Nc1nc(Cc2c(Cl)cccc2Cl)cc2cn[nH]c(=O)c12` [Example 72, 7-(2,6-dichlorobenzyl)-5-{[2-methoxy-5-methyl-4-(piperazin-1-yl)phenyl]amino}pyrido[3,4-d]pyridazin-4(3H)-one], the Ki was found to be 12 nM.

The record behind these values is patent US20140155389A1, “BICYCLIC INHIBITORS OF ALK” (ABBVIE INC., priority 2011, published 2014).
